The text below walks through data of BindingDB's records for patent US10435400 (Shanghai Haiyan Pharmaceutical Technology, 2019).

The assay concerns the target Epidermal growth factor receptor (Homo sapiens, UniProt P00533). In words: Wild Type EGFR and Mutant EGFR Kinase Inhibition Test.

For orientation: IC50 means the midpoint of a concentration-inhibition curve. A lower IC50 goes with greater potency.

Epidermal growth factor receptor, sequence (P00533 whole entry): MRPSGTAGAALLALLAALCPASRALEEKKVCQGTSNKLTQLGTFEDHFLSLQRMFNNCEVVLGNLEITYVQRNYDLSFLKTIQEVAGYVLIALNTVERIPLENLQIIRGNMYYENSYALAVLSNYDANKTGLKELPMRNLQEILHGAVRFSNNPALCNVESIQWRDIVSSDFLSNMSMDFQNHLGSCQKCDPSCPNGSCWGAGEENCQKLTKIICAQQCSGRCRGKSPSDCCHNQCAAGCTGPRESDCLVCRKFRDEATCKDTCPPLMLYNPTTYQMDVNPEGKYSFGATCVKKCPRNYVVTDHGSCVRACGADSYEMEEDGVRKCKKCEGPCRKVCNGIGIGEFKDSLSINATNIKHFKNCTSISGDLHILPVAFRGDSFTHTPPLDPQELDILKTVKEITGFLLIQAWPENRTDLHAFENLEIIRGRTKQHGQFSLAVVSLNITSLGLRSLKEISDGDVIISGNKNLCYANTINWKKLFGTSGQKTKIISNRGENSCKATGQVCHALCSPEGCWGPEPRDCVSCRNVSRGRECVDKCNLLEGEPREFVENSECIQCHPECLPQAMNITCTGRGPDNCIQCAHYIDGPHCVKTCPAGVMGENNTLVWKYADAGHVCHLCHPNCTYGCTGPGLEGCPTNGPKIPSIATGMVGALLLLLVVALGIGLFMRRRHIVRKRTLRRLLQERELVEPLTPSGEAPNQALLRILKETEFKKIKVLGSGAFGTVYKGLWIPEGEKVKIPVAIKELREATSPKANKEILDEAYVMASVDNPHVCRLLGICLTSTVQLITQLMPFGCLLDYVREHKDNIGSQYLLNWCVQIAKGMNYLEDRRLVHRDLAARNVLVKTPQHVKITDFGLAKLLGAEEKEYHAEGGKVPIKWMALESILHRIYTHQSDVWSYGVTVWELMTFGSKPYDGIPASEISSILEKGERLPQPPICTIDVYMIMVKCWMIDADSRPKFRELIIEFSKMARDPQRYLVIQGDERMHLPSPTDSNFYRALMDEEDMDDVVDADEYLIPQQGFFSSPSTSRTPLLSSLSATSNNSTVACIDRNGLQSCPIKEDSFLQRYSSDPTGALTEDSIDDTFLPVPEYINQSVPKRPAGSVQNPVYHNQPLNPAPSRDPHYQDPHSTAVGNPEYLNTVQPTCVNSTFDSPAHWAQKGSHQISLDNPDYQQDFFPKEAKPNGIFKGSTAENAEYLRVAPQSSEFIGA
Method: After the compounds (i.e., test compounds) prepared by the above-mentioned examples described herein were added, the concentration of DMSO was 2%.The working concentration of each component in 10 μl EGFR WT kinase reaction system was: 10 μM ATP, 0.8 ng/μl EGFR WT kinase, 2 μM Tyr04 substrate.

Turning to `C=CC(=O)Nc1cc(Nc2ncc(Cl)c(-c3cnc4c(ccn4C)c3)n2)c(OC)cc1N1CCC(N(C)C)CC1` [US10435400, Compound Z-2], the IC50 worked out at 272 nM.
